Experimental data from PMC4579271, “Inflammatory Signaling by NOD-RIPK2 Is Inhibited by Clinically Relevant Type II Kinase Inhibitors” (Chemistry & Biology, 2015).
Read-outs that look alike come from different tables or passages of the source. Values belong to the compound of their own block, whether it stands above or below them.

Experiments:
[1] = biological target: human RIPK2 recombinant kinase domain (Homo sapiens, UniProt O43353, R171C); experiment: Fluorescence-based thermal shift assay; conditions: for ΔTm at 10 µM: read-out: thermal shift (ΔTm); for thermal shift (ΔTm): RIPK2 2 μM, inhibitor 10 μM
Abl = Abl (Homo sapiens, UniProt P00519); experiment: ADPGlo in vitro kinase assay; assay type: biochemical; conditions: Figure S5A
Procedure: (§1) For ADPGlo (Promega) assays, 1 ng of Abl or 10 ng of RIPK2 was diluted in reaction buffer (40 mM Tris-HCl [pH 7.5], 20 mM MgCl2, 0.5 mM DTT, and 0.01% BSA) supplemented with 50 μM ATP and a 10-point dose range of inhibitors. Detailed information is provided in the Supplemental Experimental Procedures.
(§2) 40C centrifuge at 14,000 rpm for 15 min to collect lysates. Protein concentrations were […]
(§3) Equal amounts of proteins were separated using 8-10% SDS-PAGE, followed by overnight incubations with antibodies according to the manuf acturer’s recommendations.
(§4) AD P G l o in vitro kinase assays
(§5) For ADPGlo (Promega) assays, 1 ng Abl or 10 ng of RIPK2 was diluted in reaction buff er (40 mM Tris-HCl pH 7.5, 20 mM MgCl2, 0.5 m M DTT, 0.01% BSA) supplemented with 50 µM ATP and 10-point dose range of inhibitors. Reactions were performed at room temperature for 1 hour. Reactions were performed in 5 µL total volume (5% final concentration of DMSO) and stopped by addition of 5 µL of ADPGlo reagent for 40 min at room temperature. Luminescent signal was generated by addition of 10 µL of kinase detection reagent for 30 minutes at room temperature and determined using Victor3V platereader (Perkin Elmer). Specific signal was calculated by subtracting values in the wells without protein and inhibitor from the values in the test wells. Inhibition, % = ((specif ic signal (DMSO control) - specif ic signal (inhibitor))/ (specif ic signal (DMSO control))) x 100%. Non-linear regression to determine IC50 values was perf ormed using Prism software (GraphPad). qPCR analysis in RAW 264.7 cells
(§6) RAW cells were seeded at 2X105 cells/well in 12 well plates. Af ter 24 hours, cells were treated with inhibitors and stimulated with 10 µg/mL MDP f or 24 hours. Total RNAs were isolated using […]

RIPK2 [2] = biological target: RIPK2 (Homo sapiens, UniProt O43353); experiment: ADPGlo in vitro kinase assay; assay type: biochemical; conditions: Figure S5A
Procedure: as §1, §2, §3, §4, §5, §6

[3] = test system: NF-κB activation in HEKBlue cells expressing NOD2; experiment: HEKBlue NF-κB-SEAP reporter activation assay, L18-MDP stimulation; conditions: for inhibition of NOD2 (MDP) response in HEKBlue cells: Figure S5B; for EC50: Homo sapiens, HEK-Blue, 8 h, read-out: NFκB activity EC50
RIPK2 [4] = conditions: ref Vogt et al., 2011; cited from earlier work
[5] = test system: LPS pathway in THP-1 cells; experiment: Flow cytometry of TNF production in THP-1 cells, LPS; assay type: cell-based, human; conditions: 10 μM
Procedure: Figure S7, Related to Figure 7. Inhibition of NOD2 signaling in the human monocytic cell
line THP-1. Representative FACS blots (A) and quantif ication of TNF production (B) in THP-1
cells stimulated with L18-MDP or LPS. In indicated conditions cells were preincubated with
k inase inhibitors for 1 hour before activation of NOD2 and TLR4 receptor for 2.5 hours.
(1 picture or pasted object on this page, not shown here)

[6] = test system: RIPK2 ubiquitination in THP-1 cells; experiment: TUBE purification of ubiquitin conjugates, L18-MDP-stimulated THP-1 cells; conditions: 100 nM pre-treatment, 200 ng/ml L18-MDP
[7] = test system: NOD2-dependent TNF production in primary human monocytes; experiment: Flow cytometry of intracellular TNF in primary human monocytes, L18-MDP; assay type: cell-based; conditions: 200 ng/ml L18-MDP
Procedure: Experimental conditions are measured in 4–5 healthy donors. […] Gray background indicates range without inhibitors. See also Figure S7.

[8] = test system: phospho-Ser176-RIPK2 (p-RIPK2) in NOD2-expressing HEK293 cells; experiment: Western blot of phospho-Ser176-RIPK2 in HEKBlue cells after L18-MDP

Sequence of human RIPK2 recombinant kinase domain (O43353 8-317 R171C): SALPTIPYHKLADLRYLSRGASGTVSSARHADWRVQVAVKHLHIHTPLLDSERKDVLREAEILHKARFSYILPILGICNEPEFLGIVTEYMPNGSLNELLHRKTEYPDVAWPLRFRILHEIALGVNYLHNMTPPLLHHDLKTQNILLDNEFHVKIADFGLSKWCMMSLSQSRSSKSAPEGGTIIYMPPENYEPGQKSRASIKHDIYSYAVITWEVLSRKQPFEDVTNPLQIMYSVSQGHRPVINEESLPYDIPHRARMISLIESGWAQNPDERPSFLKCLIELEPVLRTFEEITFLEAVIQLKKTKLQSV
Sequence of RIPK2 (Homo sapiens, UniProt O43353) (O43353 18-294 limits assumed): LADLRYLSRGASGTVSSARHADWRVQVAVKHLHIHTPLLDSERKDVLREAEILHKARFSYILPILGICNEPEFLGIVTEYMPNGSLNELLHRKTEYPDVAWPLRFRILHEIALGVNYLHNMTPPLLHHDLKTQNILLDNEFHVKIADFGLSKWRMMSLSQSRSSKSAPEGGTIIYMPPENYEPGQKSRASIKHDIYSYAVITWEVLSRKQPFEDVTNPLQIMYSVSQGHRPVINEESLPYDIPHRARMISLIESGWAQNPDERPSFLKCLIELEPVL
Sequence of Abl (P00519 whole entry, species assumed): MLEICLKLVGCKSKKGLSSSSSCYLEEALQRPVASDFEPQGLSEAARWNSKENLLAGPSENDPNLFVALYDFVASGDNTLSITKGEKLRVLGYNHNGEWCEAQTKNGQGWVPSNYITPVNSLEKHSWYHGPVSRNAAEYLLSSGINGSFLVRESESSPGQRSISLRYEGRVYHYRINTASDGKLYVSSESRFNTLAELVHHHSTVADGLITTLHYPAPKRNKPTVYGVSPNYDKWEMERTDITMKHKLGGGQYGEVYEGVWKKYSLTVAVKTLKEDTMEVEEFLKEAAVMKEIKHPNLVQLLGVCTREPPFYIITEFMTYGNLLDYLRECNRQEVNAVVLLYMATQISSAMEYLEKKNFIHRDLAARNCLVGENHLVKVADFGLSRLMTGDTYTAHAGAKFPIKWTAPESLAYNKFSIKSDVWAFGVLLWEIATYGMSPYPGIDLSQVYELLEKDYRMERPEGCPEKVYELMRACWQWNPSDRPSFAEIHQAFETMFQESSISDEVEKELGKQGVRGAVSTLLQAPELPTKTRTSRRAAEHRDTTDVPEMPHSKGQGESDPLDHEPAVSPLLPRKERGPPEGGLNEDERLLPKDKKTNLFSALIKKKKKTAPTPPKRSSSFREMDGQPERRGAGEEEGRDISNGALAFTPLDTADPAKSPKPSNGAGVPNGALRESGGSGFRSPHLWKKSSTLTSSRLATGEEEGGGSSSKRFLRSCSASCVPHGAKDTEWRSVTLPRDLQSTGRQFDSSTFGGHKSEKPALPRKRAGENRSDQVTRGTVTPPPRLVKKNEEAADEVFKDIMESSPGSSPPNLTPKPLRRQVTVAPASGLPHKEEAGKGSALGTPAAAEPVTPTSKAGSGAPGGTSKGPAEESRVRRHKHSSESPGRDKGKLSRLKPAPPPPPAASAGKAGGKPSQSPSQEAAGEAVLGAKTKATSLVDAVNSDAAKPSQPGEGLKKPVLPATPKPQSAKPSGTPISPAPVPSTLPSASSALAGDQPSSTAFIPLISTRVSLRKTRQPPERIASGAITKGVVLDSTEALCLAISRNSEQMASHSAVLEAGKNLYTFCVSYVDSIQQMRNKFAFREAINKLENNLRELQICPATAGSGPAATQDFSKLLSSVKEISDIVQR

Structure (SMILES): CN1CCC(Nc2ncc3ncnc(Nc4ccc(F)c(Cl)c4)c3n2)CC1 [BIBX1382]
ΔTm at 10 µM [1]: 8.7 °C

inhibition of Abl kinase activity (Abl): loss of inhibition
inhibition of RIPK2 in vitro (RIPK2 [2]): loss of inhibition
Structure (SMILES): CN1CCN(Cc2ccc(NC(=O)c3ccc(C(C)(C)C)c(C#Cc4cnc5cccnn45)c3)cc2C(F)(F)F)CC1 [CS6]
inhibition of NOD2 (MDP) response in HEKBlue cells [3]: did not inhibit

ΔTm at 10 µM [1]: 9.5 °C
Structure (SMILES): Cc1nc(Nc2ncc(C(=O)Nc3c(C)cccc3Cl)s2)cc(N2CCN(CCO)CC2)n1 [Dasatinib]

ΔTm at 10 µM [1]: 9.6 °C
Structure (SMILES): c1cc(-c2cnn3cc(-c4ccc(OCCN5CCCCC5)cc4)cnc23)ccn1 [Dorsomorphin]

Structure (SMILES): COC(=O)[C@@]1(O)C[C@H]2O[C@]1(C)n1c3ccccc3c3c4c(c5c6ccccc6n2c5c31)C(=O)NC4 [K252a]
thermal shift (ΔTm) [1]: 10.0 °C

thermal shift (ΔTm) [1]: 12.1 °C
Structure (SMILES): c1ccc2c(-c3cnn4cc(-c5ccc(N6CCNCC6)cc5)cnc34)ccnc2c1 [LDN-193189]
IC50 (RIPK2 [4]): 25 nM

Structure (SMILES): CN[C@@H]1C[C@H]2O[C@@](C)([C@@H]1OC)n1c3ccccc3c3c4c(c5c6ccccc6n2c5c31)C(=O)NC4 [Staurosporine]
ΔTm at 10 µM [1]: 9.1 °C

thermal shift (ΔTm) [1]: 8.4 °C
Structure (SMILES): Cc1cccc(-c2nn(C(=S)Nc3ccccc3)cc2-c2ccnc3ccccc23)n1 [TGFβ inhibitor IV (A-83-01)]

Structure (SMILES): COc1cc2ncnc(Nc3ccc(F)c(Cl)c3)c2cc1OCCCN1CCOCC1 [gefitinib]
LPS pathway TNF production [5]: also inhibited the LPS pathway
L18-MDP-induced RIPK2 ubiquitination [6]: less robust inhibitory effects

Structure (SMILES): Cc1cn(-c2cc(NC(=O)c3ccc(C)c(Nc4nccc(-c5cccnc5)n4)c3)cc(C(F)(F)F)c2)cn1 [nilotinib]
inhibition of RIPK2 in vitro (RIPK2 [2]): did not inhibit
inhibition of NOD2 (MDP) response in HEKBlue cells [3]: did not inhibit

Structure (SMILES): CNC(=O)c1cc(Oc2ccc(NC(=O)Nc3ccc(Cl)c(C(F)(F)F)c3)c(F)c2)ccn1 [regorafenib]
concentration completely abrogating NOD2-dependent TNF production [7]: 100 nM
EC50 [3]: 3.8 nM
inhibition of L18-MDP-induced p-RIPK2 ([8]; 1 μg/ml L18-MDP, 30 min): inhibited by low nanomolar concentrations
L18-MDP-induced RIPK2 ubiquitination [6]: less robust inhibitory effects

Structure (SMILES): CNC(=O)c1cc(Oc2ccc(NC(=O)Nc3ccc(Cl)c(C(F)(F)F)c3)cc2)ccn1 [sorafenib]
EC50 [3]: 16.9 nM
inhibition of L18-MDP-induced p-RIPK2 [8]: inhibited by low nanomolar concentrations
